Source: ChEMBL document CHEMBL4507265 (2021)

Assays:
[1] = target: Activin receptor type-1-like (Homo sapiens) (UniProt P37023); conditions: Compound concentration 1000.0 nM
[2] = target: Dual specificity mitogen-activated protein kinase kinase 7 (Homo sapiens) (UniProt O14733); conditions: Compound concentration 1000.0 nM
[3] = target: Serine/threonine-protein kinase 32A (Homo sapiens) (UniProt Q8WU08); conditions: Compound concentration 1000.0 nM
[4] = target: Cyclin-dependent kinase 11A (Homo sapiens) (UniProt Q9UQ88); conditions: Compound concentration 1000.0 nM
[5] = target: Serine/threonine-protein kinase Nek10 (Homo sapiens) (UniProt Q6ZWH5); conditions: Compound concentration 1000.0 nM
[6] = tested on: Epidermal growth factor receptor (Homo sapiens), P00533 [UNDEFINED MUTATION]; conditions: Compound concentration 1000.0 nM
[7] = target: Casein kinase I isoform gamma-3 (Homo sapiens) (UniProt Q9Y6M4); conditions: Compound concentration 1000.0 nM
[8] = target: Cyclin-dependent kinase 4 (Homo sapiens) (UniProt P11802); conditions: Compound concentration 1000.0 nM
[9] = target: Maternal embryonic leucine zipper kinase (Homo sapiens) (UniProt Q14680); conditions: Compound concentration 1000.0 nM
[10] = target: Membrane-associated tyrosine- and threonine-specific cdc2-inhibitory kinase (Homo sapiens) (UniProt Q99640); conditions: Compound concentration 1000.0 nM
[11] = target: 5-hydroxytryptamine receptor 2B (Homo sapiens) (UniProt P41595); conditions: Compound concentration 10.0 uM
[12] = target: MAP kinase-interacting serine/threonine-protein kinase 1 (Homo sapiens) (UniProt Q9BUB5); conditions: Compound concentration 1000.0 nM
[13] = target: Wee1-like protein kinase 2 (Homo sapiens) (UniProt P0C1S8); conditions: Compound concentration 1000.0 nM
[14] = target: Phosphatidylinositol 4-phosphate 3-kinase C2 domain-containing subunit beta (Homo sapiens) (UniProt O00750); conditions: Compound concentration 1000.0 nM
[15] = target: RAC-gamma serine/threonine-protein kinase (Homo sapiens) (UniProt Q9Y243); conditions: Compound concentration 1000.0 nM
[16] = tested on: Phosphatidylinositol 4,5-bisphosphate 3-kinase catalytic subunit alpha isoform (Homo sapiens), P42336 [H1047L]; conditions: Compound concentration 1000.0 nM
[17] = target: Serine/threonine-protein kinase MARK1 (Homo sapiens) (UniProt Q9P0L2); conditions: Compound concentration 1000.0 nM
[18] = target: Angiopoietin-1 receptor (Homo sapiens) (UniProt Q02763); conditions: Compound concentration 1000.0 nM
[19] = target: Proto-oncogene tyrosine-protein kinase receptor Ret (Homo sapiens) (UniProt P07949); conditions: Compound concentration 1000.0 nM
[20] = target: Serine/threonine-protein kinase BRSK1 (Homo sapiens) (UniProt Q8TDC3); conditions: Compound concentration 1000.0 nM
[21] = target: Protein-tyrosine kinase 2-beta (Homo sapiens) (UniProt Q14289); conditions: Compound concentration 1000.0 nM
[22] = tested on: Phosphatidylinositol 4,5-bisphosphate 3-kinase catalytic subunit alpha isoform (Homo sapiens), P42336 [E545A]; conditions: Compound concentration 1000.0 nM
[23] = target: Fibroblast growth factor receptor 4 (Homo sapiens) (UniProt P22455); conditions: Compound concentration 1000.0 nM
[24] = tested on: Tyrosine-protein kinase ABL1 (Homo sapiens), P00519 [T315I]; conditions: Compound concentration 1000.0 nM
[25] = target: STE20/SPS1-related proline-alanine-rich protein kinase (Homo sapiens) (UniProt Q9UEW8); conditions: Compound concentration 1000.0 nM
[26] = target: Mitogen-activated protein kinase kinase kinase kinase 1 (Homo sapiens) (UniProt Q92918); conditions: Compound concentration 1000.0 nM
[27] = tested on: Epidermal growth factor receptor (Homo sapiens), P00533 [L861Q]; conditions: Compound concentration 1000.0 nM
[28] = target: Serine/threonine-protein kinase WNK1 (Homo sapiens) (UniProt Q9H4A3); conditions: Compound concentration 1000.0 nM
[29] = target: Ribosomal protein S6 kinase alpha-3 (Homo sapiens) (UniProt P51812); conditions: Compound concentration 1000.0 nM
[30] = target: Cyclin-dependent kinase 8 (Homo sapiens) (UniProt P49336); conditions: Compound concentration 1000.0 nM
[31] = target: Serine/threonine-protein kinase TBK1 (Homo sapiens) (UniProt Q9UHD2); conditions: Compound concentration 1000.0 nM
[32] = target: Serine/threonine-protein kinase PLK2 (Homo sapiens) (UniProt Q9NYY3); conditions: Compound concentration 1000.0 nM
[33] = target: Serine/threonine-protein kinase Chk2 (Homo sapiens) (UniProt O96017); conditions: Compound concentration 1000.0 nM
[34] = tested on: Phosphatidylinositol 4,5-bisphosphate 3-kinase catalytic subunit alpha isoform (Homo sapiens), P42336 [E542K]; conditions: Compound concentration 1000.0 nM
[35] = target: Kappa-type opioid receptor (Homo sapiens) (UniProt P41145); conditions: Compound concentration 10.0 uM
[36] = target: Cyclin-dependent kinase 7 (Homo sapiens) (UniProt P50613); conditions: Compound concentration 1000.0 nM
[37] = target: Insulin receptor-related protein (Homo sapiens) (UniProt P14616); conditions: Compound concentration 1000.0 nM
[38] = target: Tyrosine-protein kinase SYK (Homo sapiens) (UniProt P43405); conditions: Compound concentration 1000.0 nM
[39] = target: Aurora kinase A (Homo sapiens) (UniProt O14965); conditions: Compound concentration 1000.0 nM
[40] = target: Receptor-interacting serine/threonine-protein kinase 2 (Homo sapiens) (UniProt O43353); conditions: Compound concentration 1000.0 nM
[41] = target: Serine/threonine-protein kinase WNK4 (Homo sapiens) (UniProt Q96J92); conditions: Compound concentration 1000.0 nM
[42] = target: Sodium-dependent noradrenaline transporter (Homo sapiens) (UniProt P23975); conditions: Compound concentration 10.0 uM
[43] = target: TRAF2 and NCK-interacting protein kinase (Homo sapiens) (UniProt Q9UKE5); conditions: Compound concentration 1000.0 nM
[44] = target: Casein kinase I isoform alpha (Homo sapiens) (UniProt P48729); conditions: Compound concentration 1000.0 nM
[45] = target: Sodium-dependent serotonin transporter (Homo sapiens) (UniProt P31645); conditions: Compound concentration 10.0 uM

Sequence of Serine/threonine-protein kinase MARK1 (Homo sapiens) (Q9P0L2 whole entry, looked up): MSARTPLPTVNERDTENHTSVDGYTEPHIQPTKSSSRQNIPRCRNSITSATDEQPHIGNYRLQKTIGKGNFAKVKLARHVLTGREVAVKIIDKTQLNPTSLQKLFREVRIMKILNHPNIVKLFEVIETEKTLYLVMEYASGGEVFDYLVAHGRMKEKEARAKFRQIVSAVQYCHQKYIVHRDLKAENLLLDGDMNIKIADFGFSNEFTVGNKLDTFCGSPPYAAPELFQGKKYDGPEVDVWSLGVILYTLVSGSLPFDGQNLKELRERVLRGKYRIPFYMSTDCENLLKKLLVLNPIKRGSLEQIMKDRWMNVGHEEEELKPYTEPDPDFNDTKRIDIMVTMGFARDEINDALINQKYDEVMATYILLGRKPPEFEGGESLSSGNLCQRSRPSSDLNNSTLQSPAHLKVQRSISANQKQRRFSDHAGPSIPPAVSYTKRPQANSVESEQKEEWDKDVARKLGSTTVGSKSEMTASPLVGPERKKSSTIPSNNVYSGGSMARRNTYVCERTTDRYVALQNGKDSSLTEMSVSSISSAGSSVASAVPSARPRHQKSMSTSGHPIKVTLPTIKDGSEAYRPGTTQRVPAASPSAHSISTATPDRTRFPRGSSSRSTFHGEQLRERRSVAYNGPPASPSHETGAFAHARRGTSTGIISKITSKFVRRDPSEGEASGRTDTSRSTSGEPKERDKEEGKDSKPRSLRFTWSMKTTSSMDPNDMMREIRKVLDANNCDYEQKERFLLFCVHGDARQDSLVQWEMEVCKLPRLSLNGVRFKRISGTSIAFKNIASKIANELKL
Sequence of Sodium-dependent noradrenaline transporter (Homo sapiens) (P23975 whole entry): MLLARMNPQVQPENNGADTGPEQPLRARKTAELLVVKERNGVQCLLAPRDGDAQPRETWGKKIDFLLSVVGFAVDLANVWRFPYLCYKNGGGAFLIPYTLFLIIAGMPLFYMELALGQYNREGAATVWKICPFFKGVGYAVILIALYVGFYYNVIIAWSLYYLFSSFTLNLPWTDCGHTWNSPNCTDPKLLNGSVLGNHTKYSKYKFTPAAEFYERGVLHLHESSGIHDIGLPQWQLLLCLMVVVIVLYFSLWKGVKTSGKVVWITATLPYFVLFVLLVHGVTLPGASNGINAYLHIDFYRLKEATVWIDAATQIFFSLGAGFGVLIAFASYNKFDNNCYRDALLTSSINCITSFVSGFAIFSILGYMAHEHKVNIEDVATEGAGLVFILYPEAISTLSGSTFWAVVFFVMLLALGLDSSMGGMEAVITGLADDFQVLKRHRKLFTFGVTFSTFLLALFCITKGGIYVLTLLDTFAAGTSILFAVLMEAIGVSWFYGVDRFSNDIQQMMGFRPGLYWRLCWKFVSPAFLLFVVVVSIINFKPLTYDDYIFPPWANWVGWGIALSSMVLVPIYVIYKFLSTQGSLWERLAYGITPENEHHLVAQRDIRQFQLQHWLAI
Sequence of Mitogen-activated protein kinase kinase kinase kinase 1 (Homo sapiens) (Q92918 whole entry, looked up): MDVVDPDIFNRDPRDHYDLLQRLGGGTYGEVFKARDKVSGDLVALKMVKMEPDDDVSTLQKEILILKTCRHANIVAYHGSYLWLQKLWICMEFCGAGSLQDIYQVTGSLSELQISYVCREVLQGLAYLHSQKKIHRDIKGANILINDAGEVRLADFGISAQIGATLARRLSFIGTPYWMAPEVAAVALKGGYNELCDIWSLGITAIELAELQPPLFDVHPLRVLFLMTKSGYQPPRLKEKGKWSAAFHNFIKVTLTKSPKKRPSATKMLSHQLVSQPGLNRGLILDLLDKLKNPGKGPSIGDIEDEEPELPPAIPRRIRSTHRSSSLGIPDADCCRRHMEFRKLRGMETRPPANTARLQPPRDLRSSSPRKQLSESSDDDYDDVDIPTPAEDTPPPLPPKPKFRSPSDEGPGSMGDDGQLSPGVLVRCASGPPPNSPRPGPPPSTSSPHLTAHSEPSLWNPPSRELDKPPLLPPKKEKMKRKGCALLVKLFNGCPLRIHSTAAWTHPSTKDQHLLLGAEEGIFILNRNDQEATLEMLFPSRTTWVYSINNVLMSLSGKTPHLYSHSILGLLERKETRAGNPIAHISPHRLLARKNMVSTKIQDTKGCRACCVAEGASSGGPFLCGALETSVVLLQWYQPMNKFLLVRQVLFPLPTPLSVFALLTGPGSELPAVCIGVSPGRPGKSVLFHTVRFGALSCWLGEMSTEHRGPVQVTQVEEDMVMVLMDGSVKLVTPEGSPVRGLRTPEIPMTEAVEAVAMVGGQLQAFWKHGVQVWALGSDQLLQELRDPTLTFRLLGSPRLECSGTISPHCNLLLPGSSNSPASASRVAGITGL
Sequence of Casein kinase I isoform alpha (Homo sapiens) (P48729 2-337 limits assumed): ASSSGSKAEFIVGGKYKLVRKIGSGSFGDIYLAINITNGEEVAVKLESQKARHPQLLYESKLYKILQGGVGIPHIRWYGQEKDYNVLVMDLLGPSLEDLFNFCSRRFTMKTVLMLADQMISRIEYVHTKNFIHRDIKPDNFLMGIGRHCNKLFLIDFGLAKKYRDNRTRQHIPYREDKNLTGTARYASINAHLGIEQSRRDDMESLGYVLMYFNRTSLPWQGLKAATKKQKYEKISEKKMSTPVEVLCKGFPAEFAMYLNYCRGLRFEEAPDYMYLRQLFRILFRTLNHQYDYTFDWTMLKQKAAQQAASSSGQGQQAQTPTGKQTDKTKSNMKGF
Sequence of TRAF2 and NCK-interacting protein kinase (Homo sapiens) (Q9UKE5 whole entry, looked up, canonical isoform): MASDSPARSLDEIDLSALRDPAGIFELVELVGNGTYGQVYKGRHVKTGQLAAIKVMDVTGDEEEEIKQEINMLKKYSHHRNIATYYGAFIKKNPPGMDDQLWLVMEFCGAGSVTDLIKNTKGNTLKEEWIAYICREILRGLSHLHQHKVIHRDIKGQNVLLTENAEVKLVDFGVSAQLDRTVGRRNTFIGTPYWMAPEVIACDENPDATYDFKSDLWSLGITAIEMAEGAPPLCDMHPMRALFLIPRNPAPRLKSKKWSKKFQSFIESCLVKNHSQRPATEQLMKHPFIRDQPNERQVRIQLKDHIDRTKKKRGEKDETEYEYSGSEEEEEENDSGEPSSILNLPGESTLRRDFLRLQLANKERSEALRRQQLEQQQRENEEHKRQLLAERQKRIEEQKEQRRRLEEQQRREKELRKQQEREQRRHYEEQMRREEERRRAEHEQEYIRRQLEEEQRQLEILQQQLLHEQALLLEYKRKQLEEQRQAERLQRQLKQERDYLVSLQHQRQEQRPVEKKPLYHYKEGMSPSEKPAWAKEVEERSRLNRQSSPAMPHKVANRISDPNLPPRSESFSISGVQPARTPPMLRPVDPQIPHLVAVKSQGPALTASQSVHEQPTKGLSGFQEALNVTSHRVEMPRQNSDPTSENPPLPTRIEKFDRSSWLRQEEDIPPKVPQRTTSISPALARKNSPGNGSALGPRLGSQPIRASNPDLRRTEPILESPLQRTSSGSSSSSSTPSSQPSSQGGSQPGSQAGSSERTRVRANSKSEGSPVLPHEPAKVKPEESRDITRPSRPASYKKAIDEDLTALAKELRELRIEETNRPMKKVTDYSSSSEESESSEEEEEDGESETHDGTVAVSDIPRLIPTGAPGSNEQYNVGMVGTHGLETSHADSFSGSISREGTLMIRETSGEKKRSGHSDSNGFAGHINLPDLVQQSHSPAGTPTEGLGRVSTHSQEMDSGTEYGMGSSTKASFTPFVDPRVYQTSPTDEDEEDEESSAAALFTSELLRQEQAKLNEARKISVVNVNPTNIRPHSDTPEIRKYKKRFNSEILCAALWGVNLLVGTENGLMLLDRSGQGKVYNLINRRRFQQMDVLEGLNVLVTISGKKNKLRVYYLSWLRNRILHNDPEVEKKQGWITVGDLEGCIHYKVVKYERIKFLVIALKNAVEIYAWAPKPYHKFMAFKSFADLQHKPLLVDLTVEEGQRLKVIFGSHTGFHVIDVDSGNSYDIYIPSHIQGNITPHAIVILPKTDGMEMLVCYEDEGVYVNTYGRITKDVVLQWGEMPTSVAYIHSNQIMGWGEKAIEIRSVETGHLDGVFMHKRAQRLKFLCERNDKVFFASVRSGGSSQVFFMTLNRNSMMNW
Sequence of Serine/threonine-protein kinase TBK1 (Homo sapiens) (Q9UHD2 whole entry): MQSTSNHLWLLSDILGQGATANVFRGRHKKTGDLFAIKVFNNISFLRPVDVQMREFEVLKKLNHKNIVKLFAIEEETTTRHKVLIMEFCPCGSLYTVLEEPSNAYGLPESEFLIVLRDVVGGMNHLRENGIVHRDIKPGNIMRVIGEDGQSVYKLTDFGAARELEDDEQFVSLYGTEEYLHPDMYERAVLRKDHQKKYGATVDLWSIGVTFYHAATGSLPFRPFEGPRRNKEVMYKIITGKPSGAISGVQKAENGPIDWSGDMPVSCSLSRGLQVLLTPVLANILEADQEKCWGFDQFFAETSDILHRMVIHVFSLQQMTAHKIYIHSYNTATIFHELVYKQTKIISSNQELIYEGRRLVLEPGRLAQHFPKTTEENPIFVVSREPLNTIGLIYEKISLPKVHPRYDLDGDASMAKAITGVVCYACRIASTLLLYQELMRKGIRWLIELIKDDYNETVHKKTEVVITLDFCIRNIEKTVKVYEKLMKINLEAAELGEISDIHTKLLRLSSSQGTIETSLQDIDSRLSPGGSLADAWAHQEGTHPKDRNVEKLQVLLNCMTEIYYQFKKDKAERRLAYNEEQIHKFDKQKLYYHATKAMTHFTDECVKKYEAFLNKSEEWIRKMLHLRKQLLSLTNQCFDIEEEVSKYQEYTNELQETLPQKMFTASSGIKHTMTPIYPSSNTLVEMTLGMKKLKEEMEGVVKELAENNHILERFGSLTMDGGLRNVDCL
Sequence of Serine/threonine-protein kinase 32A (Homo sapiens) (Q8WU08 whole entry): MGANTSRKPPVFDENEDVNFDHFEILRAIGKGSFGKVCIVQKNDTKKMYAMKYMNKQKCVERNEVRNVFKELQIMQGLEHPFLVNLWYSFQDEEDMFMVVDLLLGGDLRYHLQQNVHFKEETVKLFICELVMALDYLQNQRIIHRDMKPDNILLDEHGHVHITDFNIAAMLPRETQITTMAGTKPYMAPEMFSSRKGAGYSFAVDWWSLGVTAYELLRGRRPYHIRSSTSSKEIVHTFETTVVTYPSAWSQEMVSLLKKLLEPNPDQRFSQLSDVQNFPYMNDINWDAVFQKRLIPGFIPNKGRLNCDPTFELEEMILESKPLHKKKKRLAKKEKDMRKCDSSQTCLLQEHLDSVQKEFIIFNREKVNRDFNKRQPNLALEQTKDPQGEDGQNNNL

`NS(=O)(=O)c1cc(NC(=O)Cc2ccccc2)ccc1Oc1cccc(Cl)c1` [BAY-1797] showed a residual activity [1] of 99%, a residual activity [2] of 91% and a residual activity [3] of 100%. For the same compound, the residual activity [4] was 95%, the residual activity [5] was 89% and the residual activity [6] was 67%. For the same compound, the residual activity [7] was 74%, the residual activity [8] was 74% and the residual activity [9] was 59%. It also gave a residual activity [10] of 96%, an inhibition [11] of 30.2% and a residual activity [12] of 79%. It also gave a residual activity [13] of 78%, a residual activity [14] of 91% and a residual activity [15] of 100%. For the same compound, the residual activity [16] was 96%, the residual activity [17] was 100% and the residual activity [18] was 90%. For the same compound, the residual activity [19] was 100%, the residual activity [20] was 91% and the residual activity [21] was 79%. For the same compound, the residual activity [22] was 69%, the residual activity [23] was 95% and the residual activity [24] was 61%. It also gave a residual activity [25] of 86%, a residual activity [26] of 91% and a residual activity [27] of 64%. The residual activity [28] was 89%, the residual activity [29] was 72% and the residual activity [30] was 68%. For the same compound, the residual activity [31] was 68%, the residual activity [32] was 73% and the residual activity [33] was 81%. The residual activity [34] was 87%, the inhibition [35] was 20.3% and the residual activity [36] was 64%. It also gave a residual activity [37] of 100%, a residual activity [38] of 66% and a residual activity [39] of 69%. For the same compound, the residual activity [40] was 94%, the residual activity [41] was 0% and the inhibition [42] was 0.53%. It also gave a residual activity [43] of 93%, a residual activity [44] of 93% and an inhibition [45] of 22.7%.
With `NS(=O)(=O)c1cc(NC(=O)C2(c3ccccc3Cl)CC2)ccc1Oc1cccc(Cl)c1` [BAY-207] the residual activity [1] was 45%, the residual activity [2] was 100% and the residual activity [3] was 90%. The residual activity [4] was 73%, the residual activity [5] was 89% and the residual activity [6] was 57%. The residual activity [7] was 100%, the residual activity [8] was 95% and the residual activity [9] was 96%. It also gave a residual activity [10] of 70%, an inhibition [11] of 21.1% and a residual activity [12] of 99%. For the same compound, the residual activity [13] was 74%, the residual activity [14] was 100% and the residual activity [15] was 79%. For the same compound, the residual activity [16] was 98%, the residual activity [17] was 83% and the residual activity [18] was 69%. The residual activity [19] was 84%, the residual activity [20] was 82% and the residual activity [21] was 91%. It also gave a residual activity [22] of 82%, a residual activity [23] of 100% and a residual activity [24] of 82%. The residual activity [25] was 100%, the residual activity [26] was 66% and the residual activity [27] was 76%. It also gave a residual activity [28] of 88%, a residual activity [29] of 92% and a residual activity [30] of 91%. It also gave a residual activity [31] of 62%, a residual activity [32] of 84% and a residual activity [33] of 100%. It also gave a residual activity [34] of 80%, an inhibition [35] of 21.2% and a residual activity [36] of 82%. For the same compound, the residual activity [37] was 95%, the residual activity [38] was 70% and the residual activity [39] was 100%. It also gave a residual activity [40] of 93%, a residual activity [41] of 81% and an inhibition [42] of 22.4%. The residual activity [43] was 100%, the residual activity [44] was 100% and the inhibition [45] was 8.86%.
